The target of one data set is T1, P450 1A2 (Homo sapiens, UniProt P05177).
T1 sequence (P05177 1-516): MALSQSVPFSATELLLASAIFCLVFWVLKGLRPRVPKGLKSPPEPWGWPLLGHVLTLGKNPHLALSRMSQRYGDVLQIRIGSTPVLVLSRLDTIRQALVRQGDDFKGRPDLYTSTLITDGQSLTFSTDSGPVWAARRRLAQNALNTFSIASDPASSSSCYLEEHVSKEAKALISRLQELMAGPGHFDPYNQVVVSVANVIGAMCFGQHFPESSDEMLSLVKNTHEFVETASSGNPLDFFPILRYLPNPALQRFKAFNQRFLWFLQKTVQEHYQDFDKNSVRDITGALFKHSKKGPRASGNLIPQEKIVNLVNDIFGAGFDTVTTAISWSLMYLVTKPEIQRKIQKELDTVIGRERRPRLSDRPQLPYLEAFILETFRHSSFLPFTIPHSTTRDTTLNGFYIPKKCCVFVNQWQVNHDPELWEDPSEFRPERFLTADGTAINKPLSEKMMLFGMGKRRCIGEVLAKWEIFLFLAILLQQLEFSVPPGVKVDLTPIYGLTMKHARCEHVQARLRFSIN

The target in another data set is ROCK-I (Homo sapiens, UniProt Q13464). Kind of data set: ROCK-I biochemical counter-screen. Conditions: Table 6; read-out: Biochemical Inhibition IC50 (nM) ROCK-I. In general terms: A counterscreen serves to expose hits that act by an unwanted route or on another target.
The nature of data set [1]: Microsomal stability, rat liver microsomes. As to conditions: rat liver microsomes. It is filed as in vitro ADME. In general terms: Liver microsomes are vesicles of endoplasmic reticulum, rich in cytochrome P450 enzymes.
Another data set has as its target P450 2D6 (Homo sapiens, UniProt P10635). Kind of data set: P450 inhibition at 10 μM. It counts as in vitro ADME.
In data set [2] the test system is surface CD4 and CXCR4 on CEM-SS T cells. Kind of data set: Surface staining of CD4 and CXCR4. It is filed as cell-based, human. As to the method: FIG. 11. R10015 inhibits HIV-1 DNA synthesis, nuclear migration, and virion release. a, Effects of R10015 on surface CD4 and CXCR4 expression. […] CEM-SS T cells were treated with R10015, and then infected with BlaM-Vpr tagged HIV-1(NL4-3) or HIV-1(VSV-G) to measure viral entry. c. R10015 inhibits viral DNA synthesis. CEM-SS T cells were treated with R10015 for 1 hour, and then infected with a single-cycle HIV-1(Env) for 2 hours in the presence of R10015. Following infection, cells were washed to remove HIV-1 and R10015. Viral DNA synthesis was measured by real-time PCR. d. R10015 inhibits 2-LTR circle DNA formation. Cells were similar treated with R10015 and infected. 2-TLR circles were quantified by real-time PCR. e. R10015 inhibits virion release. Cells were infected with HIV-1(Env) for 2 hours, washed, incubated for 12 hours, and then treated with R10015. Virion release was quantified by measuring p24 in the supernatant.
Cells were stained with FITC-labeled monoclonal antibody against human CD4 (clone PRA-T4) or CXCR4 (clone 12G5) (BD Biosciences). Cells were stained on ice in PBS+0.1% BSA for 30 minutes, washed with cold PBS-0.5% BSA, and then analyzed on a FACSCalibur (BD Biosciences).

The subject of data set [3] is single-cycle HIV-1(Env) in CEM-SS T cells. It is filed as cell-based. As to conditions: all time points.
The next data set concerns phosphorylation of LIMK. Kind of data set: Western blot of LIMK phosphorylation in CEM-SS T cells. It counts as cell-based, human. As for the experimental part: (§1) FIG. 10. Chemical and Biochemical characterization of R10015. a, Chemical structure of R10015 and its docking into the crystal structure of LIMK1 (PDB ID 3S95, Chain A). […] CEM-SS T cells treated with R10015 (100 μM) for a time course, and the phosphorylation of cofilin, LIMK, and PAK1/2 were measured by Western Blot. Levels of each protein or GAPDH were also measured for loading control. d, R10015 inhibits Jurkat T cell chemotaxis in responding to SDF-1. e, R10015. f, R10015 inhibits chemotactic actin activity. Resting CD4 T cells were treated with R10015, and then exposed to SDF-1 for a time course. Actin polymerization were measured by FITC-phalloidin staining. g, the relative intensity of F-actin staining was also plotted.
One million cells were lysed in NuPAGE LDS Sample Buffer (Invitrogen), separated by SDS-PAGE, and then transferred onto nitrocellulose membranes (Invitrogen). The membranes were washed in TBST for 3 min and then blocked for 30 min at room temperature with Starting Block blocking buffer (Pierce). For probing with different antibodies, blots were incubated with rabbit anti-LIMK1 antibodies (Cell Signaling), with rabbit anti-p-coflin antibodies (Cell Signaling) or with a mouse anti-PAK1/2 antibody (Cell Signaling). These antibodies were diluted in 2.5% milk/TBST and rocked overnight at 4° C. […]

Another data set deals with resting CD4 T cells. As to the kind of experiment: SDF-1-mediated actin polymerization, FITC-phalloidin staining. It counts as cell-based, human. As to conditions: pre-treatment of resting CD4 T cells. As to the method:
as §1
F-actin staining using phalloidin-FITC (Sigma) was carried out as described previously. Briefly, each staining was carried out using 1×10^6 cells. Cells were pelleted, fixed, and permeabilized with CytoPerm/Cytofix buffer (BD Biosciences) for 20 min at room temperature and washed with cold Perm/Wash buffer (BD Biosciences) twice, followed by staining with 5 μl of 0.3 mM FITC-labeled phalloidin (Sigma) for 30 min on ice in the dark. Cells were washed twice with cold Perm/Wash buffer, then were resuspended in 1% paraformaldehyde, and analyzed on a FACSCalibur (BD Biosciences).

The test system of data set [4] is VEEV (venezuelan equine encephalitis virus). It is filed as cell-based. As to conditions: Vero cells.

P450 2D6, sequence (P10635 whole entry): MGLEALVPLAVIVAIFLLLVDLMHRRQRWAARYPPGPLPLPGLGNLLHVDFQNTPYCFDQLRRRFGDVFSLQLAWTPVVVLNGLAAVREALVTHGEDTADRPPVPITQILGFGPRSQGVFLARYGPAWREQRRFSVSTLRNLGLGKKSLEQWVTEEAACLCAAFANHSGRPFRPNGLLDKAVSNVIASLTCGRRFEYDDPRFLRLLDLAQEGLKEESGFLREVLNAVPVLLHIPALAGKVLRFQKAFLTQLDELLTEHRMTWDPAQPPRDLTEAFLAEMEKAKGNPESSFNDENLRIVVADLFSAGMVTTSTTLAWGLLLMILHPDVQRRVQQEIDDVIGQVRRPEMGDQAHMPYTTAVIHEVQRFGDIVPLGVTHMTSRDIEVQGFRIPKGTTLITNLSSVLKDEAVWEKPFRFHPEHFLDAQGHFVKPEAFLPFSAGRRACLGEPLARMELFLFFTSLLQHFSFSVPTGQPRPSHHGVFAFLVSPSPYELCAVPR
ROCK-I, sequence (Q13464 whole entry, species assumed): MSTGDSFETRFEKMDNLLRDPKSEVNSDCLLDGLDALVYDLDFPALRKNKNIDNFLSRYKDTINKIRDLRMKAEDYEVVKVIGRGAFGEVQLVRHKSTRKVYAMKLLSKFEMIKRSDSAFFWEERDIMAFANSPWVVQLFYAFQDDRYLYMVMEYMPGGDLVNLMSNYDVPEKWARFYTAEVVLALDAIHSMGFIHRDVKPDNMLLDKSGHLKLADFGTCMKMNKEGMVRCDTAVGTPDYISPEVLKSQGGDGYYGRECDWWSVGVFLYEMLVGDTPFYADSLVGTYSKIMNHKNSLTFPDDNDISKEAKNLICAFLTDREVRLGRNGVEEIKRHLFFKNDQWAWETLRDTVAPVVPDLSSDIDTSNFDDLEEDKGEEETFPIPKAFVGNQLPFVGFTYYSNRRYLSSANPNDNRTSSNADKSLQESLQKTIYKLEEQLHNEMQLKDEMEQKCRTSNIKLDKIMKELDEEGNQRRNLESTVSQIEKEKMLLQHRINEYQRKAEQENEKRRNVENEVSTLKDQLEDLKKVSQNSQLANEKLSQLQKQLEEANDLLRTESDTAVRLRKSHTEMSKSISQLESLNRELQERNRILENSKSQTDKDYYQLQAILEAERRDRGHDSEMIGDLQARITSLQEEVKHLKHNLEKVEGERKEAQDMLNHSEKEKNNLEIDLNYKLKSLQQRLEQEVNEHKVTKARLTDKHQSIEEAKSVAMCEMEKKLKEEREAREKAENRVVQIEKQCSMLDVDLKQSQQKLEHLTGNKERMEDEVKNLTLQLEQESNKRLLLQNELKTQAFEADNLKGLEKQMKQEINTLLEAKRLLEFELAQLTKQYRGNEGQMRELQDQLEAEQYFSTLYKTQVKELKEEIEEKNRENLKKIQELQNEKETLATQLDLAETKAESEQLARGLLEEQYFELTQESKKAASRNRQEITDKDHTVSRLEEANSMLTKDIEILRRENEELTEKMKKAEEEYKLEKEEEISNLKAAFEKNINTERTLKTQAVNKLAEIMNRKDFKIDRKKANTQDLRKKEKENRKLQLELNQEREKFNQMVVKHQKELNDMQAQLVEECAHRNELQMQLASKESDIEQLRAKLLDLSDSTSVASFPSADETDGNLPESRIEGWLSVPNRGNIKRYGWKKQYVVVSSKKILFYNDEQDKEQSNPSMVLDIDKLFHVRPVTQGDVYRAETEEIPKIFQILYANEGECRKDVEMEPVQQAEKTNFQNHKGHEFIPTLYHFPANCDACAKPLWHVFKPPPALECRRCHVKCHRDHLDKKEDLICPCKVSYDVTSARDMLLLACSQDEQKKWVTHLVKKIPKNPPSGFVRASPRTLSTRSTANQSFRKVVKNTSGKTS

In general, IC50 refers to the midpoint of a concentration-inhibition curve. Turning to `Cc1c[nH]c2ncnc(-c3ccc(NC(=O)N(CCO)c4ccccc4)cc3)c12` [Compound 18b, 1-(2-Hydroxyethyl)-3-(4-(5-methyl-7H-pyrrolo[2,3-d]pyrimidin-4-yl)phenyl)-1-phenylurea], the “P450 % inh. at 10 μM 1A2” value on P450 1A2 is recorded as −16/14/5/13%. For the same compound, the IC50 at ROCK-I was 5540 nM. Moreover, the “Microsomal Stability t1/2 (min) Rat” value in [1] is reported as 30 min. In addition, at P450 2D6, the “P450 % inh. at 10 μM 2D6” value is 5%.
On to `COC(=O)c1ccc2[nH]c(C3CCN(c4ncnc5[nH]cc(Cl)c45)CC3)nc2c1` [Compound R10015, Methyl 2-(1-(5-chloro-7H-pyrrolo[2,3-d]pyrimidin-4-yl)piperidin-4-yl)-1Hbenzo[d]imidazole-5-carboxylate], for which, in data set [2] (1 hour treatment), the “surface expression of CD4 and CXCR4” value is listed as “did not alter”. Also, in data set [2] (prolonged treatment (4 hours)), the “surface density of CD4” value is on record as “slightly decreased”. The “viral DNA synthesis” value in data set [3] is listed as “inhibited”. In the data set on phosphorylation of LIMK, the “phosphorylation of LIMK” value is on record as “did not inhibit”. Besides, in the data set with resting CD4 T cells, the SDF-1-mediated actin polymerization entry is “markedly depressed”. Further, the VEEV infection entry in [4] is recorded as “inhibited”.

The values above are taken from US20190292189A1, “LIM KINASE INHIBITORS” (VIRONGY, LLC, priority 2016, published 2019).
